Test results: patent US7618975B2, “4-arylamino-quinazolines and analogs as activators of caspases and inducers of apoptosis and the use thereof” (Myriad Pharmaceuticals, Inc., priority 2003, dated 2009)
Read-outs that look alike come from different tables or passages of the source.

Assays:
T-47D cells [1] = experiment: Caspase cascade activation (N-(Ac-DEVD)-N′-ethoxycarbonyl-R110 fluorogenic substrate) in T-47D cells; format: cell-based, Human; details: for EC50: Homo sapiens, T47D
SW620 cells = experiment: Inhibition of cell proliferation (GI50, CellTiter-Glo); format: cell-based; details: Homo sapiens, SW-620; 48 h incubation
Procedure: (§1) T-47D, DLD, H1299, MX-1 and SW620 cells were grown and harvested as in Example 143. […] An aliquot of 45 μL of cells was added to a well of a 96-well microtiter plate containing 5 μL of a 10% DMSO in RPMI-1640 media solution without compound as the control sample for maximal cell proliferation (LMax). The samples were mixed by agitation and then incubated at 37° C. for 48 h in a 5% CO2-95% humidity incubator. After incubation, the samples were removed from the incubator and 25 μL of CellTiter-Glo™ reagent (Promega) was added. The samples were mixed by agitation and incubated at room temperature for 10-15 min. Plates were then read using a luminescent plate reader (Model SPECTRAfluor Plus, Tecan) to give Ltest values.
(§2) The samples were mixed by agitation and then incubated at 37° C. for 0.5 h in a 5% CO2-95% humidity incubator. After incubation, the samples were removed from the incubator and 25 μL of CellTiter-Glo™ reagent (Promega) was added. The samples were mixed by agitation and incubated at […] 10-15 min at room temperature in a 5% CO2-95% humidity incubator. Fluorescence was read as above, (LStart) defining luminescence for initial cell number used as baseline in GI50 determinations.

H1299 cells = experiment: as above; format: cell-based; details: Homo sapiens, NCI-H1299; 48 h incubation
Procedure: as §1, §2

DLD cells = experiment: as above; format: cell-based; details: Homo sapiens; 48 h incubation
Procedure: as §1, §2

MX-1 cells = experiment: as above; format: cell-based; details: Homo sapiens, MX1; 48 h incubation
Procedure: as §1, §2

T-47D cells [2] = experiment: as above; format: cell-based; details: Homo sapiens, T47D; 48 h incubation
Procedure: as §1, §2

[3] = tested on: tubulin (Cytoskeleton #ML113, MAP-rich); experiment: Inhibition of tubulin polymerization (DAPI fluorescence); format: biochemical; details: 30 minutes preincubation, 30 minutes at 37° C.
Procedure: Lyophilized tubulin (Cytoskeleton #ML113, 1 mg, MAP-rich) was assayed for the effect of the test compound on tubulin polymerization as measured by change in fluorescence for 4′,6-diamidino-2-phenylindole (DAPI) (Barron, D. M. et al. Analytical Biochem., 2003, 315, 49-56.). 1 μl of serial dilutions of each test compound (from 100×DMSO stock) was added in 96 well plate format and preincubated for 30 minutes with 94 ul of the non-GTP supplemented tubulin supernatant. 5 μl of DAPI/GTP solution was added to initiate polymerization and incubated for 30 minutes at 37° C. Fluorescence was read with excitation 350 nm, emission wavelength 485 nm on a Tecan Spectraflour Plus. Polymerized tubulin (DMSO and with the tubulin stabilizer Taxol® (paclitaxel)) gives a higher DAPI fluorescence as compared to non-polymerized tubulin (vinblastine and colchicine used to determine baseline).

Which EC50 (T-47D cells [1]; T-47D, 24 hr, read-out: Caspase potency EC50 (nM) T-47D (24 hr)) does the source give for COc1ccc(N(C)c2ncnc3ccccc23)cc1 [Example 34, (4-Methoxy-phenyl)-methyl-quinazolin-4-yl-amine] here?
Its EC50 is 7 nM.

And the EC50 (T-47D cells [1]; Table III, time not printed (values repeat Table I 24 hr or 48 hr), read-out: Caspase activation (EC50 nM))?
Its EC50 is 7 nM.

And the “Caspase activity Ratio T-47D (24 hr)” value (T-47D cells [1]; T-47D, 24 hr, ratio of net RFU to control)?
Its value is 7.5.

And the GI50 (SW620 cells)?
Its GI50 is 55 nM.

What about the GI50 (H1299 cells) of the same compound?
The GI50 was 59 nM.

What about the GI50 (DLD cells) of the same compound?
Its GI50 is 76 nM.

And the GI50 (MX-1 cells)?
The GI50 was 73 nM.

And the GI50 (T-47D cells [2])?
The GI50 was 503 nM.

And the IC50 [3]?
Its IC50 is 1000 nM.
